One block for each compound: values may come before it.
What was measured:
human Nav1.7 = molecular target: T1, human Nav1.7 (Homo sapiens, UniProt Q15858); test: PatchXpress automated patch-clamp, inactivated state block of Nav1.7; assay type: cell-based; conditions: channels stably expressed in HEK 293 cells, 22° C., read-out: potency for the Nav 1.7 sodium ion channel (as measured by PatchXpress)
T1 construct: expressed in transfected cells
Description: (§1) Compounds were tested on human Nav1.7 and Nav1.5 channels stably expressed in HEK 293 cells. Activity toward Nav 1.7 and Nav 1.5 channels was assessed using the following assay methodology.
(§2) Sodium Current Measurements on the PatchXpress 7000®:
(§3) To measure inactivated state block of sodium channels, test compounds were characterized in an automated PatchXpress® assay (Molecular Devices) using a double-pulse protocol on human Nav1.7 and Nav1.5 channels stably expressed in HEK 293 cells. Cells were held at a potential 20 mV negative to V0.5 inact. An 8000 ms pre-pulse 7 mV positive to V0.5 inact was given followed by a hyperpolarizing 2 ms pulse to −120 mV and a 20 ms test pulse to −20 mV. Protocol was applied to cells in the absence, presence of compound and after washout. The temperature of PatchXpress instruments was maintained at 22° C. The following recording solutions were used. Internal solution (mM): 30 CsCl, 5 HEPES, 10 EGTA, 120 CsF, 5 NaF, 2 MgCl2. External solution (mM): 120 NMDG, 40 NaCl, 1 KCl, 0.5 MgCl2, 5 HEPES, 2.7 CaCl2.
(§4) For all electrophysiology experiments, offline analysis was used to correct for current rundown and to determine percent inhibition as a function of drug concentration. IC50 values were determined by fitting to the Hill equation.

human Nav1.5 = molecular target: T2, human Nav1.5 (Homo sapiens, UniProt Q14524); test: PatchXpress automated patch-clamp, inactivated state block of Nav1.5 (selectivity); assay type: cell-based; conditions: determined by PatchXpress measurement, HEK 293 cells
T2 construct: expressed in transfected cells
T2 sequence (Q14524 whole entry): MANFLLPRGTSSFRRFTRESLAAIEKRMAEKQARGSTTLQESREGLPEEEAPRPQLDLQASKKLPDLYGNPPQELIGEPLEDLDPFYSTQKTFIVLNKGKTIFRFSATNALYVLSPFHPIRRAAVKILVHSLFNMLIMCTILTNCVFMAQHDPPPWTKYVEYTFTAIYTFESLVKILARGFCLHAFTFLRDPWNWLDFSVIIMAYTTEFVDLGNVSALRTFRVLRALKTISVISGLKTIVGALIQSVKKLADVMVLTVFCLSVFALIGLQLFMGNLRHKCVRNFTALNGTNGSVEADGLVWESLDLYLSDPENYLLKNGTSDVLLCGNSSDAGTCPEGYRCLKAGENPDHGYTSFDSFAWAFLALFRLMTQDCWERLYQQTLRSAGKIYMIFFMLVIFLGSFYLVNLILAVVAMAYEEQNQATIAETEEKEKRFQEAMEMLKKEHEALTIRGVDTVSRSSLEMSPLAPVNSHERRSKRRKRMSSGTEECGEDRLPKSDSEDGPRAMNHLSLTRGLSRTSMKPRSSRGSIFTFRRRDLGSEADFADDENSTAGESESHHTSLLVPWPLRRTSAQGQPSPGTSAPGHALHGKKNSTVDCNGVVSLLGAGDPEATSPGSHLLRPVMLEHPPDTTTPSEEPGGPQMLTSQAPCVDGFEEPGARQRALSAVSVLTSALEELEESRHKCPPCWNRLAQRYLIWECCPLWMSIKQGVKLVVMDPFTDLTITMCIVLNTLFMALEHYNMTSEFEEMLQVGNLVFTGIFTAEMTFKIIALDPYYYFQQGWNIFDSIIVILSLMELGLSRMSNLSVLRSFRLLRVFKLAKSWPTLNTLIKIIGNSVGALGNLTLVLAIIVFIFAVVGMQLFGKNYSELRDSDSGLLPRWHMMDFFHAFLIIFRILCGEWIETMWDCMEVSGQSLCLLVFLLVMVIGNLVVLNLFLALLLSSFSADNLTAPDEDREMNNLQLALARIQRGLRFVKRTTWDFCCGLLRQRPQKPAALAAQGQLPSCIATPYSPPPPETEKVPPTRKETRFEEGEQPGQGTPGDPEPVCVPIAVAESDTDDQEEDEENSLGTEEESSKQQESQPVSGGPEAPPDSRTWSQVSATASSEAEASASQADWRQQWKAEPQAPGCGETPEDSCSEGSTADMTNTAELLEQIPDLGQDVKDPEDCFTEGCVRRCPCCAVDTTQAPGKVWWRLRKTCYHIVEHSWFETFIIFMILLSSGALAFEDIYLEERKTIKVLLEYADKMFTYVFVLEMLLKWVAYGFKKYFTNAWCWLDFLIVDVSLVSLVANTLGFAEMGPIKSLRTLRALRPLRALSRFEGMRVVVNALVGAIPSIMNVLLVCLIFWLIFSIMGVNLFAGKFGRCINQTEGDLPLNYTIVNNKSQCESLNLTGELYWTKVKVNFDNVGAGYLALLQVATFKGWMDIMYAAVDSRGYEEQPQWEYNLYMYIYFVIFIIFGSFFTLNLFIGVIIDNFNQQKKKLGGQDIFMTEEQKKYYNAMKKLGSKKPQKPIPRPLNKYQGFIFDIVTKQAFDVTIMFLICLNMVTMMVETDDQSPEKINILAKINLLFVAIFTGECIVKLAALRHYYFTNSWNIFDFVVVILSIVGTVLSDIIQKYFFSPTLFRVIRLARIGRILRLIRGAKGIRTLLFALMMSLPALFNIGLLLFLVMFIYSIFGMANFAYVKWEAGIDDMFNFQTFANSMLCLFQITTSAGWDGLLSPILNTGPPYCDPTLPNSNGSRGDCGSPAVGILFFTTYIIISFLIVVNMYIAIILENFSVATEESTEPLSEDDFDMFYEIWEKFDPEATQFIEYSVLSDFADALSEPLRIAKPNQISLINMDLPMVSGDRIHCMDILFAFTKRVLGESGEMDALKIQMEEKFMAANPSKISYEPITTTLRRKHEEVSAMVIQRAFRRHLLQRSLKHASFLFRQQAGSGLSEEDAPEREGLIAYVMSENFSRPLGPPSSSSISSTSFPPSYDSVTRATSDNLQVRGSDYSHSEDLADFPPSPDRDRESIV
Description: as §1, §2, §3, §4

T1 sequence (Q15858 whole entry): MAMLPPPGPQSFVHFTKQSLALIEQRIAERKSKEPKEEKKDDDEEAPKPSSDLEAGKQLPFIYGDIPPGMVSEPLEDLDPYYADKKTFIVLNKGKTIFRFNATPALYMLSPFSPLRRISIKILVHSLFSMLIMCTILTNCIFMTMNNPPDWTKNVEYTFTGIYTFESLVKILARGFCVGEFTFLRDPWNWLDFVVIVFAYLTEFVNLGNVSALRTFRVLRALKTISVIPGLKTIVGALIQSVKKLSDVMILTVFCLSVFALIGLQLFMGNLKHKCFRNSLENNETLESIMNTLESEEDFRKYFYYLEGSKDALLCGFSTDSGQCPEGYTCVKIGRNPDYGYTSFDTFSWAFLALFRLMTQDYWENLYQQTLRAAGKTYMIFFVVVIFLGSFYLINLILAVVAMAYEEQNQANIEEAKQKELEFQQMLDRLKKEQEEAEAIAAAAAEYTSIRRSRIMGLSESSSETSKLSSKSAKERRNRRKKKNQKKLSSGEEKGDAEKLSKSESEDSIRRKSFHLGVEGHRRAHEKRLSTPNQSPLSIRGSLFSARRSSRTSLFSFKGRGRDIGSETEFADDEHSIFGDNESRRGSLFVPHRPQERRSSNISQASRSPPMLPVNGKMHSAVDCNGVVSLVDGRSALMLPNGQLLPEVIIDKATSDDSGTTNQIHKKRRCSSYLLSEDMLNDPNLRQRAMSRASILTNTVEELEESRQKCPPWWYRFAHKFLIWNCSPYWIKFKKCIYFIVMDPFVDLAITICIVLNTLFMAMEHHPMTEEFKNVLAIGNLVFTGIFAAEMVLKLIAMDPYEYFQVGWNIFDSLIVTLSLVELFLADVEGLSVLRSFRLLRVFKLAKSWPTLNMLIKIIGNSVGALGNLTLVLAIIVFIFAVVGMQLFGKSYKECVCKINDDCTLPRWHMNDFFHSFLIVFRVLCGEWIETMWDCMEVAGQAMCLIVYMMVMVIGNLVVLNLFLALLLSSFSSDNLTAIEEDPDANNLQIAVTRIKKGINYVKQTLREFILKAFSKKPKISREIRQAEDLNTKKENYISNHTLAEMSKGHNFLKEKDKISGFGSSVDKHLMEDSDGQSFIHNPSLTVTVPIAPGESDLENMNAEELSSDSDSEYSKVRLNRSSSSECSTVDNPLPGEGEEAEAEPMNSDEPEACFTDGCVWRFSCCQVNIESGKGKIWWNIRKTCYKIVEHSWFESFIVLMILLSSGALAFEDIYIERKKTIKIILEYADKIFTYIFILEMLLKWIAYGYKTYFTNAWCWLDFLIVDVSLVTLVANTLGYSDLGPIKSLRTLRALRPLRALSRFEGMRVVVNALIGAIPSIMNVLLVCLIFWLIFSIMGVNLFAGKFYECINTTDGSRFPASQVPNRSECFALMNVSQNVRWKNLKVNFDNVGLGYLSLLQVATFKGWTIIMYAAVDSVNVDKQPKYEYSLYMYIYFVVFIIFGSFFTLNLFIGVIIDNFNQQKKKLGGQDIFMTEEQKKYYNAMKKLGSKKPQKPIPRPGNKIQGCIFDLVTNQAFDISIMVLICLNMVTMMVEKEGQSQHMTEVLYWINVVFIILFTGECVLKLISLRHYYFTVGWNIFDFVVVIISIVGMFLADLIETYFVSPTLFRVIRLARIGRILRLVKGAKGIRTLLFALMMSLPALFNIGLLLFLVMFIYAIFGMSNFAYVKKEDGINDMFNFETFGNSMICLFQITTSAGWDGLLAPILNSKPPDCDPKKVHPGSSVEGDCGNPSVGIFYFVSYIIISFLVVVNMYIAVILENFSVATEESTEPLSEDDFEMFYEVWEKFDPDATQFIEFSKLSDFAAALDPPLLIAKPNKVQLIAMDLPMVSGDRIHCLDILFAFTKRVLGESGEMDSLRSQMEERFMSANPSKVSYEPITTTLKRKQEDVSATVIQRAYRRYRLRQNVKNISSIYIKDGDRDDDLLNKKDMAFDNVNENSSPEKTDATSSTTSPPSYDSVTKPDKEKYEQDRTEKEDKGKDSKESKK

Compound: C[C@H]1CC[C@]2(CNc3cc(F)c(S(=O)(=O)Nc4nccs4)cc3Cl)CCCN12 (single isomer, unassigned) [Ex11-8-A]
IC50 (human Nav1.7): 35 nM | ratio of Nav1.7 potency:Nav 1.5 potency (human Nav1.5): 305

Compound: C[C@@H]1CC[C@@]2(CNc3cc(F)c(S(=O)(=O)Nc4nccs4)cc3Cl)CCCN12 (single isomer, unassigned) [Ex11-8-B]
IC50 (human Nav1.7): 6 nM | ratio of Nav1.7 potency:Nav 1.5 potency (human Nav1.5): 2533

Compound: CC1CCC2(CNc3ccc(S(=O)(=O)Nc4nccs4)cc3C(F)(F)F)CCCN12 (single isomer, unassigned) [Ex11-10-B, 4-((((3R,7aR or 3S,7aS)-3-methylhexahydro-1H-pyrrolizin-7a-yl)methyl)-amino)-N-(thiazol-2-yl)-3-(trifluoromethyl)-benzenesulfonamide]
IC50 (human Nav1.7): 40 nM | ratio of Nav1.7 potency:Nav 1.5 potency (human Nav1.5): 755

Compound: CC1CCC2(CNc3ccc(S(=O)(=O)Nc4ncc(F)s4)cc3Cl)CCCN12 (single isomer, unassigned) [Ex11-12-B, 3-chloro-N-(5-fluorothiazol-2-yl)-4-((((3R,7aR or 3S,7aS)-3-methylhexahydro-1H-pyrrolizin-7a-yl)methyl)-amino)benzene-sulfonamide]
IC50 (human Nav1.7): 30 nM | ratio of Nav1.7 potency:Nav 1.5 potency (human Nav1.5): 1017

Compound: O=S(=O)(Nc1nccs1)c1cc(Cl)c(NC[C@]23CCCN2CC2(CC2)C3)cc1F (single isomer, unassigned) [Ex13-10-B]
IC50 (human Nav1.7): 16 nM | ratio of Nav1.7 potency:Nav 1.5 potency (human Nav1.5): 406

Compound: O=S(=O)(Nc1ncc(F)s1)c1ccc(NCC23CCCN2CC2(CC2)C3)c(C(F)(F)F)c1 (single isomer, unassigned) [Ex13-12-A, (S or R)-N-(5-fluorothiazol-2-yl)-4-(((hexahydrospiro-[cyclopropane-1,2′-pyrrolizin]-7a′-yl)methyl)-amino)-3-(trifluoromethyl)-benzenesulfonamide]
IC50 (human Nav1.7): 22 nM | ratio of Nav1.7 potency:Nav 1.5 potency (human Nav1.5): 756

Compound: O=S(=O)(Nc1nccs1)c1cc(Cl)c(NC[C@]23CCCN2[C@@H](CO)CC3)cc1F (single isomer, unassigned) [Ex14-11-B]
IC50 (human Nav1.7): 10 nM | ratio of Nav1.7 potency:Nav 1.5 potency (human Nav1.5): 3045

Compound: COc1ccc(C[C@H]2CN3CCC[C@@]3(CNc3cc(F)c(S(=O)(=O)Nc4nccs4)cc3Cl)C2)cc1 (single isomer, unassigned) [Ex15-10-A]
IC50 (human Nav1.7): 2 nM | ratio of Nav1.7 potency:Nav 1.5 potency (human Nav1.5): 918

Compound: COc1ccc(CC2CN3CCCC3(CNc3cc(F)c(S(=O)(=O)Nc4ncc(F)s4)cc3Cl)C2)cc1 (single isomer, unassigned) [Ex15-12-B, 5-chloro-2-fluoro-N-(5-fluorothiazol-2-yl)-4-((((2S,7aR or 2R,7aS)-2-(4-methoxybenzyl)hexahydro-1H-pyrrolizin-7a-yl)methyl)amino)benzene-sulfonamide]
IC50 (human Nav1.7): 66 nM | ratio of Nav1.7 potency:Nav 1.5 potency (human Nav1.5): 99

Compound: COc1ccc([C@@H]2CN3CCC[C@@]3(CNc3cc(F)c(S(=O)(=O)Nc4nccs4)cc3Cl)C2)cc1 (single isomer, unassigned) [Ex16-12-A]
IC50 (human Nav1.7): 51 nM | ratio of Nav1.7 potency:Nav 1.5 potency (human Nav1.5): 348

Compound: O=S(=O)(Nc1nccs1)c1cc(Cl)c(NCC23CCCCN2CCC3)cc1F (single isomer, unassigned) [Ex17-7-A, (S or R) 5-chloro-2-fluoro-4-(((octahydroindolizin-8a-yl)methyl)amino)-N-(thiazol-2-yl)benzenesulfonamide]
IC50 (human Nav1.7): 113 nM | ratio of Nav1.7 potency:Nav 1.5 potency (human Nav1.5): 450

Compound: O=S(=O)(Nc1nccs1)c1cc(Cl)c(NCC23CCCCN2CCC3)cc1F (single isomer, unassigned) [Ex17-7-B, (R or S) 5-chloro-2-fluoro-4-(((octahydroindolizin-8a-yl)methyl)amino)-N-(thiazol-2-yl)benzenesulfonamide]
IC50 (human Nav1.7): 185 nM | ratio of Nav1.7 potency:Nav 1.5 potency (human Nav1.5): 193

Compound: CCc1cc(S(=O)(=O)Nc2nccs2)c(F)cc1NC[C@@]12CCCN1C[C@H](Cc1ccc(OC)cc1)C2 (single isomer, unassigned) [Ex18-5-A]
IC50 (human Nav1.7): 9 nM | ratio of Nav1.7 potency:Nav 1.5 potency (human Nav1.5): 315

Compound: CCc1cc(S(=O)(=O)Nc2nccs2)c(F)cc1NCC12CCCN1CC(C)(C)C2 (single isomer, unassigned) [Ex18-9-A, (S or R)-4-(((2,2-dimethylhexahydro-1H-pyrrolizin-7a-yl)-methyl)-amino)-5-ethyl-2-fluoro-N-(thiazol-2-yl)-benzenesulfonamide]
IC50 (human Nav1.7): 55 nM | ratio of Nav1.7 potency:Nav 1.5 potency (human Nav1.5): 548

Compound: N#Cc1cc(S(=O)(=O)Nc2ncns2)ccc1NCC12CCCN1CCC2 [Ex1-6, 3-cyano-4-[(tetrahydro-1H-pyrrolizin-7a(5H)-ylmethyl)amino]-N-(1,2,4-thiadiazol-5-yl)benzenesulfonamide]
IC50 (human Nav1.7): 86 nM | ratio of Nav1.7 potency:Nav 1.5 potency (human Nav1.5): 349

Compound: N#Cc1cc(S(=O)(=O)Nc2nccs2)c(F)cc1NCC12CCCN1CCC2 [Ex1-10, 5-cyano-2-fluoro-4-[(tetrahydro-1H-pyrrolizin-7a(5H)-ylmethyl)amino]-N-(1,3-thiazol-2-yl)benzenesulfonamide]
IC50 (human Nav1.7): 221 nM | ratio of Nav1.7 potency:Nav 1.5 potency (human Nav1.5): 94

More lines, in order of falling IC50 (human Nav1.7), values ahead:

IC50 (human Nav1.7): 370 nM
Compound: O=S(=O)(Nc1nncs1)c1cc(Cl)c(NCC23CCCN2CCC3)cc1F [Ex1-5, 5-chloro-2-fluoro-4-[(tetrahydro-1H-pyrrolizin-7a(5H)-ylmethyl)amino]-N-(1,3,4-thiadiazol-2-yl)benzenesulfonamide]
ratio of Nav1.7 potency:Nav 1.5 potency (human Nav1.5): 81

IC50 (human Nav1.7): 126 nM
Compound: O=S(=O)(Nc1nccs1)c1cc(Cl)c(NC[C@@]23CCCN2CC2(CC2)C3)cc1F (single isomer, unassigned) [Ex13-10-A]
ratio of Nav1.7 potency:Nav 1.5 potency (human Nav1.5): 113

IC50 (human Nav1.7): 43 nM
Compound: O=S(=O)(Nc1ncc(Br)s1)c1cc(Cl)c(NCC23CCCN2CCC3)cc1F [Ex1-13, N-(5-bromothiazol-2-yl)-5-chloro-2-fluoro-4-(((hexahydro-1H-pyrrolizin-7a-yl)methyl)amino)benzene-sulfonamide]
ratio of Nav1.7 potency:Nav 1.5 potency (human Nav1.5): 1507

IC50 (human Nav1.7): 40 nM
Compound: CCc1cc(S(=O)(=O)Nc2nccs2)c(F)cc1NC[C@]12CCCN1C[C@@H](Cc1ccc(OC)cc1)C2 (single isomer, unassigned) [Ex18-5-B]
ratio of Nav1.7 potency:Nav 1.5 potency (human Nav1.5): 359

IC50 (human Nav1.7): 35 nM
Compound: N#Cc1cc(S(=O)(=O)Nc2ncc(Cl)s2)c(F)cc1NCC12CCCN1CCC2 [Ex1-11, N-(5-chloro-1,3-thiazol-2-yl)-5-cyano-2-fluoro-4-[(tetrahydro-1H-pyrrolizin-7a(5H)-ylmethyl)amino]benzene-sulfonamide]
ratio of Nav1.7 potency:Nav 1.5 potency (human Nav1.5): 469

IC50 (human Nav1.7): 30 nM
Compound: COc1ccc(C[C@@H]2CN3CCC[C@]3(CNc3cc(F)c(S(=O)(=O)Nc4nccs4)cc3Cl)C2)cc1 (single isomer, unassigned) [Ex15-10-B]
ratio of Nav1.7 potency:Nav 1.5 potency (human Nav1.5): 308

IC50 (human Nav1.7): 28 nM
Compound: O=S(=O)(Nc1nccs1)c1cc(Cl)c(NC[C@@]23CCCN2[C@H](CO)CC3)cc1F (single isomer, unassigned) [Ex14-11-A]
ratio of Nav1.7 potency:Nav 1.5 potency (human Nav1.5): 1062

IC50 (human Nav1.7): 22 nM
Compound: CC1CCC2(CNc3ccc(S(=O)(=O)Nc4nccs4)cc3C(F)(F)F)CCCN12 (single isomer, unassigned) [Ex11-10-A, 4-((((3S,7aS or 3R,7aR)-3-methyl-hexahydro-1H-pyrrolizin-7a-yl)methyl)-amino)-N-(thiazol-2-yl)-3-(trifluoromethyl)-benzenesulfonamide]
ratio of Nav1.7 potency:Nav 1.5 potency (human Nav1.5): 1376

IC50 (human Nav1.7): 22 nM
Compound: CC1CCC2(CNc3ccc(S(=O)(=O)Nc4ncc(F)s4)cc3Cl)CCCN12 (single isomer, unassigned) [Ex11-12-A, 3-chloro-N-(5-fluorothiazol-2-yl)-4-((((3S,7aS or 3R,7aR)-3-methylhexahydro-1H-pyrrolizin-7a-yl)methyl)amino)benzene-sulfonamide]
ratio of Nav1.7 potency:Nav 1.5 potency (human Nav1.5): 1335

IC50 (human Nav1.7): 21 nM
Compound: COc1ccc([C@H]2CN3CCC[C@]3(CNc3cc(F)c(S(=O)(=O)Nc4nccs4)cc3Cl)C2)cc1 (single isomer, unassigned) [Ex16-12-B]
ratio of Nav1.7 potency:Nav 1.5 potency (human Nav1.5): 708

IC50 (human Nav1.7): 16 nM
Compound: CCc1cc(S(=O)(=O)Nc2nccs2)c(F)cc1NCC12CCCN1CC(C)(C)C2 (single isomer, unassigned) [Ex18-9-B, (R or S)-4-(((2,2-dimethylhexahydro-1H-pyrrolizin-7a-yl)methyl)-amino)-5-ethyl-2-fluoro-N-(thiazol-2-yl)-benzenesulfonamide]
ratio of Nav1.7 potency:Nav 1.5 potency (human Nav1.5): 1870

IC50 (human Nav1.7): 8 nM
Compound: COc1ccc(CC2CN3CCCC3(CNc3cc(F)c(S(=O)(=O)Nc4ncc(F)s4)cc3Cl)C2)cc1 (single isomer, unassigned) [Ex15-12-A, 5-chloro-2-fluoro-N-(5-fluorothiazol-2-yl)-4-((((2R,7aS or 2S,7aR)-2-(4-methoxybenzyl)hexahydro-1H-pyrrolizin-7a-yl)-methyl)amino)benzene-sulfonamide]
ratio of Nav1.7 potency:Nav 1.5 potency (human Nav1.5): 282

IC50 (human Nav1.7): 7 nM
Compound: O=S(=O)(Nc1ncc(F)s1)c1ccc(NCC23CCCN2CC2(CC2)C3)c(C(F)(F)F)c1 (single isomer, unassigned) [Ex13-12-B, (R or S)-N-(5-fluorothiazol-2-yl)-4-(((hexahydrospiro-[cyclopropane-1,2′-pyrrolizin]-7a′-yl)methyl)-amino)-3-(trifluoromethyl)-benzenesulfonamide]
ratio of Nav1.7 potency:Nav 1.5 potency (human Nav1.5): 3240
